Read-outs that look alike come from different tables or passages of the source.
How the values were obtained:
LBD of LXRβ = molecular target: T1, LBD of LXRβ (Homo sapiens, UniProt P55055); test: LanthaScreen TR-FRET LXRβ coactivator assay (LXR binding assay); format: biochemical
T1 construct: purchased Thermo Fisher Scientific
T1 sequence (P55055 222-460 limits assumed): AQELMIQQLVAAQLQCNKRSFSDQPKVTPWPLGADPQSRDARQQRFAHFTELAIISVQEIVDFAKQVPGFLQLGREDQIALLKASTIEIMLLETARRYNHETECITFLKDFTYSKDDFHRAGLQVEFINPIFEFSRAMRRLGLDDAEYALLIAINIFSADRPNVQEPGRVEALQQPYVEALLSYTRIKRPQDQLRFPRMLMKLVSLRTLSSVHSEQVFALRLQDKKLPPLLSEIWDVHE
Description: (§1) Binding assays of graded concentrations of vitamin D3 or lumisterol hydroxyderivatives to LXRα/β were performed using the LanthaScreen TR-FRET LXRα/β Coactivator kit (Thermo Fisher Scientific, Inc., Waltham, MA) following the manufacture’s protocol. Briefly, after addition of LXRα/β-LBD to the derivatives, a mixture of peptide (Fluorescein-TRAP220/DRIP-2 for LXRα or Fluorescein-D22 for LXRβ) and antibody (Tb-anti-GST) was added to the reaction followed by incubation in room temperature for 2 h. TR-FRET ratio was calculated by dividing the emission at 520 nm by the emission at 495 nm using Synergy neo2 (BioTek, Winooski, VT).

LBD of LXRα = molecular target: T2, LBD of LXRα (Homo sapiens, UniProt Q13133); test: LanthaScreen TR-FRET LXRα coactivator assay (LXR binding assay); format: biochemical
T2 construct: after addition of LXRα/β-LBD to the derivatives; purchased Thermo Fisher Scientific
T2 sequence (Q13133 209-447 limits assumed): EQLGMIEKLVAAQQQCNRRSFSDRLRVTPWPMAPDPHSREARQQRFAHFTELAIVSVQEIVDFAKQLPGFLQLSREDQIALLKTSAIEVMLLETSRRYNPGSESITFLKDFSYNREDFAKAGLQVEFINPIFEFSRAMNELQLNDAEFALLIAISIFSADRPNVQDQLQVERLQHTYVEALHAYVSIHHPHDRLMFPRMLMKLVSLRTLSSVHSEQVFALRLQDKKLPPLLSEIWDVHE
Description: as §1

[1] = agonist, average values, read-out: LXRβ EC50
[2] = agonist, average values, read-out: LXRα EC50

| SMILES | EC50 (LBD of LXRβ; [1]) [nM] | EC50 (LBD of LXRα; [2]) [nM] | EC50 (LBD of LXRβ) [nM] | EC50 (LBD of LXRα) [nM] |
| --- | --- | --- | --- | --- |
| CC(C)CCC(O)[C@@H](C)[C@H]1CC[C@H]2C3=CC=C4C[C@@H](O)CC[C@@]4(C)[C@@H]3CC[C@]12C (some centres unmarked) [22(OH)L3] | 14000 | 640 | – | – |
| CC(CC[C@H](O)C(C)C)[C@H]1CC[C@H]2C3=CC=C4C[C@@H](O)CCC4(C)[C@@H]3CC[C@]12C (some centres unmarked) [24(OH)L3] | 1300 | 3600 | – | – |
| CC(CCCC(C)(C)O)[C@H]1CC[C@H]2C3=CC=C4C[C@@H](O)CC[C@@]4(C)[C@@H]3CC[C@]12C (some centres unmarked) [25(OH)L3] | 1900 | 140 | – | – |
| C[C@@H](CO)CCC[C@@H](C)[C@H]1CC[C@H]2C3=CC=C4C[C@@H](O)CC[C@@]4(C)[C@@H]3CC[C@]12C [(25R)-27(OH)L3] | 550 | 820 | – | – |
| C[C@H](CO)CCC[C@@H](C)[C@H]1CC[C@H]2C3=CC=C4C[C@@H](O)CC[C@@]4(C)[C@@H]3CC[C@]12C [(25S)-27(OH)L3] | 1.3 | 26 | – | – |
| C=C1CC[C@H](O)C/C1=C/C=C1\CCC[C@]2(C)[C@@H]([C@H](C)CCCC(C)C)CC[C@@H]12 [D3, Vitamin D3, reference compound] | – | – | 890 | 760 |
| CC(C)CCC[C@@H](C)[C@H]1CC[C@H]2C3=CC=C4C[C@@H](O)CC[C@@]4(C)[C@@H]3CC[C@]12C [L3, lumisterol] | 110 | 250 | – | – |
